Patent US20060094749A1, “Substituted pyridoxines as anti-platelet agents” (Medicure International Inc., priority 2004, published 2006)

Assays:
Format in all cases: cell-based
[1] = tested on: platelets (platelet rich plasma); experiment: Inhibition of platelet aggregation, ADP as agonist; settings: ADP 4 μM, human PRP, read-out: % Reduction in Aggregation, ADP (4 μM); for inhibition at 500 µM: compound 500 μM; for inhibition at 250 µM: compound 250 μM; for inhibition at 100 µM: compound 100 μM
Method: (§1) Platelet rich plasma (PRP) was obtained by drawing whole blood from normal human donors (not on any medication) into sodium citrate tubes (3.2%), and centrifuging at 160 xg for about 10 minutes. Platelet poor plasma (PPP) was obtained by centrifuging the remainder of the sample after the platelets were removed at 800 xg for about 10 minutes. The PRP was adjusted to a count of 280×10^9/L using a mixture of PRP and PPP. The platelets (200 μL) were incubated with the test compounds (25 μL) adjusted to various concentrations (50, 100, 250, and 500 μM) for about 30 minutes at room temperature (approximate final platelet count in the incubation mixture of 250×10^9/L). The samples were incubated for about 3 minutes at about 37° C., and then transferred to the mixing wells of a Chrono-log 4 channel aggregometer (Chrono-log Corp., Havertown, Pa.). After baselines were established, the agonist (25 μL of 40 μM ADP (Sigma, St. Louis, Mo.) or 25 μL of 50 μg/mL and 10 μg/mL collagen (Helena Laboratories, Beaumont, Tex.) or 25 μL of 120 μM thrombin receptor activating peptide (TRAP) (Sigma)) was then added. Aggregation was monitored for 5 minutes at 37° C. with stirring (1000 rpm). The amplitude and slope of each tracing were calculated to determine the amount of aggregation. Control samples were performed using only solvent. The % reduction in aggregation was calculated for each sample compared to the proper solvent control.

[2] = tested on: platelets (platelet rich plasma); experiment: Inhibition of platelet aggregation, thrombin receptor activating peptide (TRAP) as agonist; settings: TRAP 12 μM, human PRP, read-out: % Reduction in Aggregation, TRAP (12 μM); for inhibition at 500 µM: compound 500 μM; for inhibition at 250 µM: compound 250 μM; for inhibition at 100 µM: compound 100 μM
Method: as §1

[3] = tested on: platelets (platelet rich plasma); experiment: Inhibition of platelet aggregation, collagen as agonist; settings: human PRP; for inhibition at 500 µM: compound 500 μM; for inhibition at 250 µM: compound 250 μM; for inhibition at 100 µM: compound 100 μM; for inhibition at 50 µM: compound 50 μM
Method: as §1

[4] = collagen 1 μg/mL, read-out: % Reduction in Aggregation, Collagen (1 μg/mL)
[5] = collagen 5 μg/mL, read-out: % Reduction in Aggregation, Collagen (5 μg/mL)

Compound | inhibition at 500 µM [1] [%] | inhibition at 500 µM [2] [%] | inhibition at 500 µM [3, 4] [%] | inhibition at 500 µM [3, 5] [%] | inhibition at 250 µM [1] [%] | inhibition at 250 µM [2] [%] | inhibition at 250 µM [3, 4] [%] | inhibition at 250 µM [3, 5] [%] | also measured
Cc1ncc(CNC(=O)c2cccc(C(=N)N)c2)c(CO)c1O [Compound 2, 3-Carbamimidoyl-N-(5-hydroxy-4-hydroxymethyl-6-methyl-pyridin-3-ylmethyl)-benzamide] | 10 | 6 | 3 | 12 | – | – | – | – | –
Cc1ncc(CNC(=O)c2ccc(C(=N)N)cc2)c(CO)c1O [Compound 5, 4-Carbamimidoyl-N-(5-hydroxyl-4-hydroxymethyl-6-methyl-pyridin-3-ylmethyl)-benzamide] | 71 | 84 | 91 | 27 | – | – | – | – | –
Cc1ncc(CNCc2ccc(C(=N)N)cc2)c(CO)c1O [Compound 7, 4-{[(5-Hydroxyl-4-hydroxymethyl-6-methyl-pyridin-3-ylmethyl)-amino]-methyl}-benzamidine] | 26 | 34 | 2 | 8 | – | – | – | – | –
Cc1ncc(CNCc2cccc(C(=N)N)c2)c(CO)c1O [Compound 9, 3-{[(5-Hydroxy-4-hydroxymethyl-6-methyl-pyridin-3-ylmethyl)-amino]-methyl]-benzamidine] | 2 | 0 | 0 | 10 | – | – | – | – | –
Cc1ncc(CNc2cccc(C(=N)N)c2)c(CO)c1O [Compound 14, 3-[(5-Hydroxy-4-hydroxymethyl-6-methyl-pyridin-3-ylmethyl)-amino]-benzamidine] | 16 | 8 | 0 | 3 | – | – | – | – | –
Cc1ncc(CNC(=O)c2ccc(-c3ccc([N+](=O)[O-])nc3)cc2)c(CO)c1O [Compound 18, N-(5-Hydroxy-4-hydroxymethyl-6-methyl-pyridin-3-ylmethyl)-4-(6-nitro-pyridin-3-yl)-benzamide] | – | – | – | – | 10 | 30 | 6 | 7 | –
Cc1ncc(CNC(=O)c2ccc(-c3ccc(C(=N)N)cc3)cc2)c(CO)c1O [Compound 20, 4′-Carbamimidoyl-biphenyl-4-carboxylic (5-hydroxyl-4-hydroxymethyl-6-methyl-pyridin-3-ylmethyl)-amide] | – | – | – | – | 93 | 95 | 94 | 64 | –
COc1c(C)ncc(CNC(=O)c2ccc(-c3ccc(C(=N)N)cc3)cc2)c1CO [Compound 23, 4′-Carbamimidoyl-biphenyl-4-carboxylic acid (4-hydroxymethyl-5-methoxy-6-methyl-pyridin-3-ylmethyl)-amide] | – | – | – | – | 39 | 27 | 19 | 17 | –
Cc1ncc(CNC(=O)c2ccc(-c3ccc(C(=N)N)cc3)cc2)c(C(=O)O)c1O [Compound 26, 5-{[(4′-Carbamimidoyl-biphenyl-4-carbonyl)-amino]-methyl}-3-hydroxy-2-methyl-isonicotinic acid] | – | – | – | – | – | – | – | – | inhibition at 100 µM [1]: 62%; inhibition at 100 µM [2]: 17%; inhibition at 100 µM [3, 4]: 52%; inhibition at 100 µM [3, 5]: 18%
COC(=O)c1c(CNC(=O)c2ccc(-c3ccc(C(=N)N)cc3)cc2)cnc(C)c1OC [Compound 28, 5-{[(4′-Carbamimidoyl-biphenyl-4-carbonyl)-amino]-methyl}-3-methoxy-2-methyl-isonicotinic acid methyl ester] | – | – | – | – | 46 | 10 | 17 | 24 | –
Cc1ncc(CNc2ccc(-c3ccc(C(=N)N)cc3)cn2)c(CO)c1O [Compound 31, 4-{6-[(5-Hydroxy-4-hydroxymethyl-6-methyl-pyridin-3-ylmethyl)-amino]-pyridin-3-yl}-benzamidine] | – | – | – | – | 79 | 64 | 74 | 28 | –
Cc1ncc(CNc2ccc(-c3ccc(C(=N)N)cc3)cc2OC(F)(F)F)c(CO)c1O [Compound 35] | – | – | – | – | 84 | 35 | 86 | 12 | –
Cc1ncc(CNc2ccc(-c3ccc(C(=N)N)cc3)cc2C(F)(F)F)c(CO)c1O [Compound 37, 4′-[(5-Hydroxy-4-hydroxymethyl-6-methyl-pyridin-3-ylmethyl)-amino]-3′-trifluoromethyl-biphenyl-4-carboxamidine] | – | – | – | – | 43 | 17 | 19 | 6 | –
Cc1ncc(CO)c(CNc2ccc(C(=N)N)cc2)c1O [Compound 39, 4-[(3-Hydroxy-5-hydroxymethyl-2-methyl-pyridin-4-ylmethyl)-amino]-benzamidine] | – | – | – | – | – | – | – | – | inhibition at 100 µM [1]: 3%; inhibition at 100 µM [2]: 5%; inhibition at 100 µM [3, 4]: 1%; inhibition at 100 µM [3, 5]: 8%
Cc1ncc(CNc2ccc(-c3ccc(C(=N)N)cc3)cc2)c(C)c1O [Compound 43, 4′-[(5-Hydroxy-4,6-dimethyl-pyridin-3-ylmethyl)-amino]-biphenyl-4-carboxamidine] | – | – | – | – | 87 | 69 | 100 | 0 | –
Cc1ncc(CN(Cc2ccc(C(=N)N)cc2)c2ccc(C(=N)N)cc2)c(CO)c1O [Compound 52, 4-(N-(4-Carbamimidoyl-benzyl)-N-((5-hydroxy-4-(hydroxymethyl)-6-methylpyridin-3-yl)methyl)amino)benzamidine] | – | – | – | – | – | – | – | – | inhibition at 50 µM ([1]; compound 50 μM): 95%; inhibition at 50 µM ([2]; compound 50 μM): 95%; inhibition at 50 µM [3, 4]: 93%; inhibition at 50 µM [3, 5]: 7%
Cc1ncc(CCNCc2ccc(C(=N)N)cc2)c(CO)c1O [Compound 55, 4-{[2-(5-Hydroxy-4-hydroxymethyl-6-methyl-pyridin-3-yl)-ethylamino]-methyl}-benzamidine] | 38 | 75 | 24 | 20 | – | – | – | – | –
Cc1ncc(CCNCc2cccc(C(=N)N)c2)c(CO)c1O [Compound 57, 3-{[2-(5-Hydroxy-4-hydroxymethyl-6-methyl-pyridin-3-yl)ethylamino]methyl}-benzamidine] | 0 | 14 | 6 | 0 | – | – | – | – | –
Cc1ncc(CCNC(=O)c2ccc(C(=N)N)cc2)c(CO)c1O [Compound 59, 4-Carbamimidoyl-N-[2-(5-hydroxy-4-hydroxymethyl-6-methyl-pyridin-3-yl)-ethyl]-benzamide] | 55 | 67 | 28 | 11 | – | – | – | – | –
Cc1ncc(CCNC(=O)c2cccc(C(=N)N)c2)c(CO)c1O [Compound 61, 3-Carbamimidoyl-N-[2-(5-hydroxy-4-hydroxymethyl-6-methyl-pyridin-3-yl)-ethyl]-benzamide] | 2 | 0 | 0 | 10 | – | – | – | – | –
